Measured values: PMC4503980 (Scientific Reports, 2015)

Experiments:
Type in all cases: binding
[1] = biological target: T1, TAMRA-nNOS/PSD-95-PDZ1-2 interaction (Homo sapiens, UniProt P29475+P78352, V36C); experiment: 'direct' FP assay, TAMRA-nNOS / PDZ1-2 (saturation and inhibition)
T1 construct: nNOS-PDZ (12–130, human); PDZ1-2 (61-249); made in house; host or cells: E. coli
Source text: The assay was established by creating a fluorescent version of nNOS-PDZ by TAMRA-labelling nNOS-PDZ via an introduced cysteine residue (V36C).
nNOS-PDZ (12–130, human) and α-Syntrophin-PDZ (82–200, human), both comprising an N-terminal His-tag/FXa-site sequence ([sequence]), were likewise expressed in E. coli and purified by HisTrap chromatography followed by gel-filtration as described in details previously[19]. To make the TAMRA-labelled nNOS-PDZ, mutant nNOS-PDZ (V36C) protein was generated by standard site-directed mutagenesis and characterized as described previously[19]. […]

PDZ3 of PSD-95 = biological target: T2, PDZ3 of PSD-95 (Homo sapiens, UniProt P78352); experiment: FP inhibition assay, Cy5-CRIPT probe / PDZ3; conditions: concentrations reaching 500–1800 μM; Cy5-CRIPT 50 nM; [PDZ3] = 5 μM
T2 construct: PDZ3 (309-401); made in house; host or cells: E. coli BL21-DE3 pLysS
Procedure: (§1) Fluorescent probes were made by attaching fluorophores (Cy5) to C-terminal 10- or 11-mer (C10 or C11) peptide ligands representing canonical and natural occurring protein partners (Supplementary Table S1). […] (Fig. 2).
(§2) (b) Cy5-GluN2B as probe (50 nM), [PDZ2] = 6 μM. (c) Cy5-CRIPT as probe (50 nM), [PDZ3] = 5 μM. […] Error bars indicate SEM based on three individual measurements. […]
(§3) Incubation time was 10–15 minutes (room temperature), and the assay was performed in a 1 × TBS buffer (150 mM NaCl, 10 mM Tris, pH 7.4) using black flat-bottom 384-well plates (Corning Life Sciences, NY) and a Safire2 plate-reader (Tecan, Männedorf, Switzerland). […] TAMRA- and Cy5-probes were measured at excitation/emission values of 530/585 nm (bandwidth = 20 nm) and 635/670 nm (bandwidth = 15 nm), respectively. […]
(§4) FP values were fitted to the general equation: Y = Bottom + (Top–Bottom)/[1 + (10^(X-logIC50)*HillSlope)], where X is the logarithmic value of peptide/compound concentration, and Y is the experimental FP values. Competitive inhibition constants, Ki values, were calculated from the IC50 values to quantify affinities between test substance and protein[42]. […]

[2] = biological target: T3, nNOS-PDZ/PSD-95-PDZ1-2 interaction (Homo sapiens, UniProt P29475); experiment: 'indirect' FP assay, Cnskr2 probe / PSD-95-PDZ1-2 / nNOS-PDZ
T3 construct: nNOS-PDZ (12–130, human); PDZ1-2 (61-249); made in house; host or cells: E. coli
Source text: First we tested a series of 23 fluorescent-labelled C-terminal peptide ligands (Supplementary Table S1) derived from PDZ-interacting proteins in order to find a probe with good activity towards the PSD-95 PDZ domains and no or little activity against nNOS-PDZ (Supplementary Fig. S1). The Cnskr2 probe fulfilled these selectivity criteria and was used to generate saturation curves with PDZ2 and PDZ1-2 of PSD-95 (Fig. 4a). […] Next, fixed concentrations of TAMRA-Cnskr2, PSD-95-PDZ2/1-2, and nNOS-PDZ were applied, corresponding to the conditions at IC50 of the nNOS-PDZ inhibition curve (Fig. 4b) where sensitivity of the assay is greatest. […] Here, we used the Sapk3-peptide as it has the desired high affinity to α1-Syntrophin-PDZ and low affinity to nNOS-PDZ (Supplementary Fig. S1).
The minor increases in mP at high concentrations, 260-2900 μM, were due to fluorescence artefacts.
Similar, this assay was established with Syntrophin-PDZ and Sapk3 as probe (Fig. 4d).
In all cases, the DMSO effect on the assay was tested and found negligible.

PDZ2 of PSD-95 = biological target: T4, PDZ2 of PSD-95 (Homo sapiens, UniProt P78352); experiment: FP inhibition assay, Cy5-GluN2B probe / PDZ2; conditions: concentrations reaching 500–1800 μM; Cy5-GluN2B 50 nM; [PDZ2] = 6 μM
T4 construct: PDZ2 (155-249); made in house; host or cells: E. coli BL21-DE3 pLysS
Procedure: as §1, §2, §3, §4

nNOS-PDZ = biological target: T5, nNOS-PDZ (Homo sapiens, UniProt P29475); experiment: FP saturation and inhibition assay, Cy5-Nav1.4 probe / nNOS-PDZ; conditions: concentrations reaching 500–1800 μM; Cy5-Nav1.4 50 nM; [nNOS-PDZ] = 20 μM (ZL006) or 10 μM (IC87201)
T5 construct: nNOS-PDZ (12–130, human); made in house; host or cells: E. coli
Procedure: as §1
(b) Cy5-GluN2B as probe (50 nM), [PDZ2] = 6 μM. (c) Cy5-CRIPT as probe (50 nM), [PDZ3] = 5 μM. […] Error bars indicate SEM based on three individual measurements.
nNOS-PDZ (12–130, human) and α-Syntrophin-PDZ (82–200, human), both comprising an N-terminal His-tag/FXa-site sequence ([…]), were likewise expressed in E. coli and purified by HisTrap chromatography followed by gel-filtration as described in details previously. To make the TAMRA-labelled nNOS-PDZ, mutant nNOS-PDZ (V36C) protein was generated by standard site-directed mutagenesis and characterized as described previously. Here, dithiothreitol was added to the pooled protein sample after HisTrap purification to a final concentration of 10 mM to eliminate unwanted disulfide bonds, and a final gel-filtration (50 mM NaPi buffer pH 7.5) was performed to remove impurities and salts. Next, purified nNOS-PDZ (V36C) was desalted by dialysis into 50 mM (NH4)2CO3 buffer (SnakeSkin dialysis tubing 3.5 MWCO, Pierce, Rockford, IL, USA) and subsequently lyophilized. nNOS-PDZ (V36C) was redissolved in 500 μL buffer (6 M GnHCl, 200 mM NaPi) and solid TAMRA-maleimide (5-tetramethylrhodamine-C2-maleimide; Anaspec, Fremont, CA, USA) was added in excess (cf. ESI-LC-MS). The coupling reaction was incubated at room temperature for 16 hours and TAMRA-labelled nNOS-PDZ was purified by preparative HPLC, and refolded in assay buffer. Functional validation was performed by FP[19], and all final proteins were characterized for purity and identity by SDS-PAGE and ESI-LC-MS.
Incubation time was 10–15 minutes (room temperature), and the assay was performed in a 1 × TBS buffer (150 mM NaCl, 10 mM Tris, pH 7.4) using black flat-bottom 384-well plates (Corning Life Sciences, NY) and a Safire2 plate-reader (Tecan, Männedorf, Switzerland). G-factor was adjusted so that probe alone (i.e. without protein interacting-partner) would give an FP value of 20 mP. This background value was subsequently subtracted from the raw data before plotting and analyzing the data. TAMRA- and Cy5-probes were measured at excitation/emission values of 530/585 nm (bandwidth = 20 nm) and 635/670 nm (bandwidth = 15 nm), respectively. […]
as §4

T4 sequence (P78352 155-249): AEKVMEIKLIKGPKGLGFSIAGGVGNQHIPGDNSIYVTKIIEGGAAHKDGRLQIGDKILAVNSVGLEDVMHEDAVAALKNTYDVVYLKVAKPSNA
T2 sequence (P78352 309-401): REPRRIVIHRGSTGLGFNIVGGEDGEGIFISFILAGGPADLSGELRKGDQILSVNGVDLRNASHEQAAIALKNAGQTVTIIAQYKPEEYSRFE
T1 sequence (P29475 12-130 V36C): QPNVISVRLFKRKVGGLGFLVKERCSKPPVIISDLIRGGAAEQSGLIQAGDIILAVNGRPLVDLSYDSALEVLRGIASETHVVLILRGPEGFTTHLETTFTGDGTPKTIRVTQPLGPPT
T1 sequence (P78352 61-249): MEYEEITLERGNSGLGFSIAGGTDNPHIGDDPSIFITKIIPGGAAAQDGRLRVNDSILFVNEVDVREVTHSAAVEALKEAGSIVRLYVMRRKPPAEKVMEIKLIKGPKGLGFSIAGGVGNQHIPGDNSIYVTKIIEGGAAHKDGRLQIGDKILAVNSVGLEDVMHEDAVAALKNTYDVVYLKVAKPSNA
T3 sequence (P29475 12-130): as the sequence (P29475 12-130 V36C) above, with C25V counted along it
T5 sequence (P29475 12-130): as the sequence (P29475 12-130 V36C) above, with C25V counted along it

Oc1c(Cl)cc(Cl)cc1CNc1ccc2[nH]nnc2c1 [IC87201, 2-((1H-Benzo[d][1–3]triazol-5-ylamino)methyl)-4-6-dichlorophenol]
inhibition of TAMRA-nNOS/PDZ1-2 interaction ([1]; up to 7.3 μM (fluorescence artefacts above), data not shown): no inhibition
inhibition of probe-PDZ interaction (PDZ3) (PDZ3 of PSD-95): did not inhibit
activity in indirect FP assay (nNOS-PDZ/PSD-95-PDZ1-2) ([2]; up to 500–600 μM, Cy5-Cnskr2 5 nM / PSD-95-PDZ1-2 1 μM / nNOS-PDZ 5 μM): no activity
inhibition of probe-PDZ interaction (PDZ2) (PDZ2 of PSD-95): did not inhibit
inhibition of probe-PDZ interaction (nNOS-PDZ) (nNOS-PDZ): did not inhibit

O=C(O)c1ccc(NCc2cc(Cl)cc(Cl)c2O)cc1O [ZL006, 4-((3,5-Dichloro-2-hydroxybenzyl)amino)-2-hydroxybenzoic acid]
inhibition of TAMRA-nNOS/PDZ1-2 interaction ([1]; tested at up to 1200 μM, TAMRA-nNOS 5 nM, PDZ1-2 0.3 μM): no activity
inhibition of probe-PDZ interaction (PDZ3) (PDZ3 of PSD-95): did not inhibit
rise in FP signal (inhibition of nNOS-PDZ/PSD-95-PDZ1-2) ([2]; ZL006 0-2900 μM, TAMRA-Cnskr2 5 nM / PSD-95-PDZ1-2 1 μM / nNOS-PDZ 2.5 μM): no rise in FP signal
inhibition of probe-PDZ interaction (PDZ2) (PDZ2 of PSD-95): did not inhibit
inhibition of probe-PDZ interaction (nNOS-PDZ) (nNOS-PDZ): did not inhibit
